Test results from patent US9630977B2, “Cephalosporin derivatives and pharmaceutical compositions thereof” (Legochem Biosciences, Inc., priority 2011, dated 2017).
In brackets after ≈: the same amount, converted by molar mass.

Key:
19 clinical isolates = test: In vitro antibacterial activity test, panel of 19 clinical isolates as a whole; type: cell-based; conditions: effect of a siderophore group, Table 1
Procedure: To evaluate antibacterial activity of each of the compounds of Examples 1 to 68, in vitro antibacterial activity test was performed.
The in vitro antibacterial activity was evaluated by measuring MIC90 (ug/mL) of each of the compounds of Examples 1 to 68, which is defined as the lowest concentration of an antibiotic that will inhibit the visible growth of 90% of microorganisms after incubation as compared with a control group to which the antibiotic is not treated. MIC90 values were measured by the broth microdilution method developed by the Clinical and Laboratory Standards Institute (CLSI) (see CLSI M7-A5, Methods for Dilution Antimicrobial Susceptibility Test for Bacteria that Grow Aerobically-Fifth Edition (2000): CLSI, Villanova, Pa.).
In vitro antibacterial activity was measured with respect to the following 19 clinical isolates: M. catarrhalis; P. aeruginosa (5 strains); K. pneumoniae (6 strains); A. baumannii (3 strains); E. coli (2 strains); A. calcoaceticus; and E. cloacae.
Test compounds each (the cephalosporin derivative compounds prepared in Examples 1 to 68) were dissolved in DMSO at the concentration of 10,240 ug/mL, were diluted by two fold with DMSO, and then were diluted by twenty fold with sterilized distilled water. The final concentration in the antibacterial activity test was in the range of […] to 128 ug/mL, and the final concentration of DMSO used as an adjuvant was 2.5% (V/V).

[1] = Pharmacokinetics study in rat, IV; type: in vivo, SD rat; conditions: Rat (10 mg/kg) single IV
Procedure: Test animals: 9 week old SD rat, weight 290˜310 g; 3 rats/sample time point
Lab conditions: Temperature of 21±2° C.; humidity of 50±20%
Administration method: Injecting test compound solution through tail vein (IV)
Test method: Blood samples were taken from jugular vein at a predetermined time period for 24 hours after administration, plasma was separated, and quantified by using LC-MS/MS.

[2] = system: A. calcoaceticus ATCC15473; test: In vitro antibacterial activity test (broth microdilution); type: cell-based; conditions: Acinetobacter calcoaceticus; A. calcoaceticus ATCC15473; read-out: MIC90
Method in brief: (§1)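 Values: MIC90, ug/mL. Method: CLSI broth microdilution on clinical isolates, compounds at final 0.0626 to 128 ug/mL.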

K. pneumoniae β11 = test: as above; type: cell-based; conditions: Klebsiella pneumoniae; K. pneumoniae β11; read-out: MIC90
Method in brief: as §1

E. coli β4 = test: as above; type: cell-based; conditions: Escherichia coli, read-out: MIC90
Method in brief: as §1

K. pneumoniae 2011E = test: as above; type: cell-based; conditions: Klebsiella pneumoniae, 2011E, K. pneumoniae 2011E; read-out: MIC90
Method in brief: as §1

K. pneumoniae β14 = test: as above; type: cell-based; conditions: Klebsiella pneumoniae, read-out: MIC90
Method in brief: as §1

A. baumannii 46 = test: as above; type: cell-based; conditions: Acinetobacter baumannii; A. baumannii 46; read-out: MIC90
Method in brief: as §1

K. pneumoniae β10 = test: as above; type: cell-based; conditions: Klebsiella pneumoniae; K. pneumoniae β10; read-out: MIC90
Method in brief: as §1

P. aeruginosa 43 = test: as above; type: cell-based; conditions: Pseudomonas aeruginosa; P. aeruginosa 43; read-out: MIC90
Method in brief: as §1

K. pneumoniae β9 = test: as above; type: cell-based; conditions: Klebsiella pneumoniae, K. pneumoniae β9; read-out: MIC90
Method in brief: as §1

P. aeruginosa 40 = test: as above; type: cell-based; conditions: Pseudomonas aeruginosa, 40, P. aeruginosa 40; read-out: MIC90
Method in brief: as §1

M. catarrhalis 2524 = test: as above; type: cell-based; conditions: Moraxella catarrhalis; M. catarrhalis 2524; read-out: MIC90
Method in brief: as §1

P. aeruginosa 6065Y = test: as above; type: cell-based; conditions: Pseudomonas aeruginosa, read-out: MIC90
Method in brief: as §1

P. aeruginosa 1912E = test: as above; type: cell-based; conditions: Pseudomonas aeruginosa, 1912E, read-out: MIC90
Method in brief: as §1

K. pneumoniae β13 = test: as above; type: cell-based; conditions: Klebsiella pneumoniae, K. pneumoniae β13; read-out: MIC90
Method in brief: as §1

A. baumannii 52 = test: as above; type: cell-based; conditions: Acinetobacter baumannii; A. baumannii 52; read-out: MIC90
Method in brief: as §1

E. cloacae β19 = test: as above; type: cell-based; conditions: Enterobacter cloacae, read-out: MIC90
Method in brief: as §1

A. baumannii 49 = test: as above; type: cell-based; conditions: Acinetobacter baumannii; A. baumannii 49; read-out: MIC90
Method in brief: as §1

P. aeruginosa 37 = test: as above; type: cell-based; conditions: Pseudomonas aeruginosa, 37, P. aeruginosa 37; read-out: MIC90
Method in brief: as §1

E. coli AG100 = test: as above; type: cell-based; conditions: Escherichia coli, AG100, E. coli AG100; read-out: MIC90
Method in brief: as §1

[3] = system: P. aeruginosa (16 clinical isolates); test: Antibacterial activity on representative drug-resistance bacteria: number of clinical isolates per MIC value; type: cell-based; conditions: P. aeruginosa (N = 16)
[4] = system: A. baumannii (6 clinical isolates); test: as above; type: cell-based; conditions: A. baumanni (N = 6)
[5] = system: K. pneumoniae (38 clinical isolates); test: as above; type: cell-based; conditions: K. pneumomiae (N = 38)

C[C@H](O/N=C(\C(=O)N[C@@H]1C(=O)N2C(C(=O)[O-])=C(C[n+]3cnc(N)c(NCCNC(=O)c4cc(=O)c(O)cn4O)c3)CSC12)c1nc(N)sc1Cl)C(=O)O (stereo partly shown) [Compound 4]
antibacterial activity (in words) (19 clinical isolates): significantly improved | AUCnorm [1]: 4.03 kg·h/L | Cmax,norm [1]: 7.58 kg/L | AUC ([1]; SD, plasma): 40300 ng·h/mL | Cmax ([1]; SD, plasma): 75.8 µg/mL | Tmax ([1]; SD, plasma): 1.2 min | clearance ([1]; SD, plasma): 4.17 mL/min/kg | half-life ([1]; SD, plasma): 37.2 min | Vd ([1]; SD, plasma, read-out: Vss): 0.2 L/kg | MIC90 [2]: 2 µg/mL (≈ 2.52 µM) | MIC90 (K. pneumoniae β11): 4 µg/mL (≈ 5.04 µM) | MIC90 (E. coli β4): 0.5 µg/mL (≈ 0.63 µM) | MIC90 (K. pneumoniae 2011E): 2 µg/mL (≈ 2.52 µM) | MIC90 (K. pneumoniae β14): 32 µg/mL (≈ 40.3 µM) | MIC90 (A. baumannii 46): 64 µg/mL (≈ 80.6 µM) | MIC90 (K. pneumoniae β10): 0.5 µg/mL (≈ 0.63 µM) | MIC90 (P. aeruginosa 43): 1 µg/mL (≈ 1.26 µM) | MIC90 (K. pneumoniae β9): 0.5 µg/mL (≈ 0.63 µM) | MIC90 (P. aeruginosa 40): 1 µg/mL (≈ 1.26 µM) | MIC90 (M. catarrhalis 2524): 0.25 µg/mL (≈ 0.315 µM) | MIC90 (P. aeruginosa 6065Y): 0.5 µg/mL (≈ 0.63 µM) | MIC90 (P. aeruginosa 1912E): 0.5 µg/mL (≈ 0.63 µM) | MIC90 (K. pneumoniae β13): 1 µg/mL (≈ 1.26 µM) | MIC90 (A. baumannii 52): 4 µg/mL (≈ 5.04 µM) | MIC90 (E. cloacae β19): 1 µg/mL (≈ 1.26 µM) | MIC90 (A. baumannii 49): 8 µg/mL (≈ 10.1 µM) | MIC90 (P. aeruginosa 37): 0.5 µg/mL (≈ 0.63 µM) | MIC90 (E. coli AG100): 0.125 µg/mL (≈ 0.157 µM) | number of clinical isolates that showed the respective MIC value ([3]; MIC 0.0625 ug/mL): 1 | number of clinical isolates that showed the respective MIC value ([3]; MIC 0.25 ug/mL): 5 | number of clinical isolates that showed the respective MIC value ([3]; MIC 0.5 ug/mL): 2 | number of clinical isolates that showed the respective MIC value ([3]; MIC 1 ug/mL): 1 | number of clinical isolates that showed the respective MIC value ([3]; MIC 2 ug/mL): 2 | number of clinical isolates that showed the respective MIC value ([3]; MIC 4 ug/mL): 1 | number of clinical isolates that showed the respective MIC value ([3]; MIC 8 ug/mL): 1 | number of clinical isolates that showed the respective MIC value ([3]; MIC >16 ug/mL): 3 | number of clinical isolates that showed the respective MIC value ([4]; MIC 0.125 ug/mL): 1 | number of clinical isolates that showed the respective MIC value ([4]; MIC 2 ug/mL): 2 | number of clinical isolates that showed the respective MIC value ([4]; MIC >16 ug/mL): 3 | number of clinical isolates that showed the respective MIC value ([5]; MIC 0.25 ug/mL): 1 | number of clinical isolates that showed the respective MIC value ([5]; MIC 1 ug/mL): 1 | number of clinical isolates that showed the respective MIC value ([5]; MIC 2 ug/mL): 3 | number of clinical isolates that showed the respective MIC value ([5]; MIC 4 ug/mL): 2 | number of clinical isolates that showed the respective MIC value ([5]; MIC 8 ug/mL): 3 | number of clinical isolates that showed the respective MIC value ([5]; MIC 16 ug/mL): 2 | number of clinical isolates that showed the respective MIC value ([5]; MIC >16 ug/mL): 26
